Measurements: ChEMBL document CHEMBL3885861, “Open TG-GATES”

Organism: Rattus norvegicus
Assay: Open TG-GATES - Regimen: Single
Assay type: toxicity, organism-based, Sprague-Dawley
Set-up: regimen Single, gender Male, age 6 weeks
Conditions: in vivo, iv, 0 mg/kg, route intravenous injection, dose level Control; for Bas / Eos / Fbg / Ht / Lym / MCH / MCHC / MCV / Mono / PT / Plat / RBC / Ret / Neu: tissue Blood; for KIDNEY_L / KIDNEY_R / KIDNEY_TOTAL: tissue Kidney; for LIVER: tissue Liver

COc1cccc2c1C(=O)c1c(O)c3c(c(O)c1C2=O)C[C@@](O)(C(=O)CO)C[C@@H]3O[C@H]1C[C@H](N)[C@H](O)[C@H](C)O1 [DOXORUBICIN]
TERMINAL_BW (3 h): 210.4 g | Bas (3 h): 0% | Eos (3 h): 0.8% | Fbg (3 h): 277.8 mg/dL | Ht (3 h): 39.4% | Lym (3 h): 84.4% | MCH (3 h): 22 pg | MCHC (3 h): 34.9% | MCV (3 h): 63.1 fL | Mono (3 h): 2.6% | PT (3 h): 16.3 s | Plat (3 h): 122.6 x10_4/uL | RBC (3 h): 625 x10_4/ul | Ret (3 h): 6.3% | KIDNEY_L (3 h): 0.9 g | KIDNEY_R (3 h): 0.9 g | KIDNEY_TOTAL (3 h): 1.8 g | LIVER (3 h): 9.4 g | ALP (3 h, tissue Plasma): 1425.2 IU/L | ALT (3 h, tissue Plasma): 43.6 IU/L | AST (3 h, tissue Plasma): 77 IU/L | CRE (3 h, tissue Plasma): 0.2 mg/dL | DBIL (3 h, tissue Plasma): 0 mg/dL | GLC (3 h, tissue Plasma): 181.8 mg/dL | K (3 h, tissue Plasma): 4.5 meq/L | LDH (3 h, tissue Plasma): 185.6 IU/L | Na (3 h, tissue Plasma): 142.2 meq/L | RALB (3 h, tissue Plasma): 3 g/dL | TBIL (3 h, tissue Plasma): 0.008 mg/dL | TC (3 h, tissue Plasma): 77.6 mg/dL | TG (3 h, tissue Plasma): 87.2 mg/dL | TP (3 h, tissue Plasma): 5.2 g/dL | gamma-GTP (3 h, tissue Plasma): 1.2 IU/L | TERMINAL_BW (6 h): 211.5 g | Bas (6 h): 0% | Eos (6 h): 0.8% | Fbg (6 h): 292.4 mg/dL | Ht (6 h): 38.3% | Lym (6 h): 76% | MCH (6 h): 21.5 pg | MCHC (6 h): 34.4% | MCV (6 h): 62.4 fL | Mono (6 h): 2.8% | Neu (6 h): 19.2% | PT (6 h): 16.3 s | Plat (6 h): 127.3 x10_4/uL | RBC (6 h): 614.6 x10_4/ul | Ret (6 h): 6.9% | KIDNEY_L (6 h): 0.9 g | KIDNEY_R (6 h): 0.9 g | KIDNEY_TOTAL (6 h): 1.8 g | LIVER (6 h): 8.9 g | ALP (6 h, tissue Plasma): 1252 IU/L | ALT (6 h, tissue Plasma): 46.6 IU/L | AST (6 h, tissue Plasma): 90.2 IU/L | CRE (6 h, tissue Plasma): 0.2 mg/dL | DBIL (6 h, tissue Plasma): 0.004 mg/dL | GLC (6 h, tissue Plasma): 172.2 mg/dL | K (6 h, tissue Plasma): 4.3 meq/L | Na (6 h, tissue Plasma): 140.6 meq/L | RALB (6 h, tissue Plasma): 2.9 g/dL | TBIL (6 h, tissue Plasma): 0.026 mg/dL | TC (6 h, tissue Plasma): 71.8 mg/dL | TG (6 h, tissue Plasma): 63 mg/dL | TP (6 h, tissue Plasma): 5.1 g/dL | gamma-GTP (6 h, tissue Plasma): 1.6 IU/L | TERMINAL_BW (9 h): 208 g | Bas (9 h): 0% | Eos (9 h): 0.6% | Fbg (9 h): 298.2 mg/dL | Ht (9 h): 38.9% | Lym (9 h): 77.8% | MCH (9 h): 21.6 pg | MCHC (9 h): 34.2% | MCV (9 h): 63.2 fL | Mono (9 h): 2.8% | PT (9 h): 16.4 s | Plat (9 h): 116.3 x10_4/uL | RBC (9 h): 615.4 x10_4/ul | Ret (9 h): 6.5% | KIDNEY_L (9 h): 0.9 g | KIDNEY_R (9 h): 1 g | KIDNEY_TOTAL (9 h): 1.9 g | LIVER (9 h): 8.6 g | ALP (9 h, tissue Plasma): 1422.6 IU/L | ALT (9 h, tissue Plasma): 39.8 IU/L | AST (9 h, tissue Plasma): 77.6 IU/L | CRE (9 h, tissue Plasma): 0.2 mg/dL | DBIL (9 h, tissue Plasma): 0 mg/dL | GLC (9 h, tissue Plasma): 201.8 mg/dL | K (9 h, tissue Plasma): 4.3 meq/L | Na (9 h, tissue Plasma): 140.2 meq/L | RALB (9 h, tissue Plasma): 2.9 g/dL | TBIL (9 h, tissue Plasma): 0.01 mg/dL | TC (9 h, tissue Plasma): 63 mg/dL | TG (9 h, tissue Plasma): 65.6 mg/dL | TP (9 h, tissue Plasma): 5.3 g/dL | gamma-GTP (9 h, tissue Plasma): 1.4 IU/L | TERMINAL_BW (24 h): 223.8 g | Bas (24 h): 0% | Eos (24 h): 1% | Fbg (24 h): 298 mg/dL | Ht (24 h): 37.5% | Lym (24 h): 77.6% | MCH (24 h): 22.4 pg | MCHC (24 h): 36% | MCV (24 h): 62.2 fL | Mono (24 h): 4% | Neu (24 h): 16.4% | PT (24 h): 16.4 s | Plat (24 h): 117.3 x10_4/uL | RBC (24 h): 602.6 x10_4/ul | Ret (24 h): 7% | KIDNEY_L (24 h): 0.9 g | KIDNEY_R (24 h): 1 g | KIDNEY_TOTAL (24 h): 1.9 g | ALP (24 h, tissue Plasma): 1402 IU/L | ALT (24 h, tissue Plasma): 41 IU/L | AST (24 h, tissue Plasma): 68 IU/L | CRE (24 h, tissue Plasma): 0.2 mg/dL | DBIL (24 h, tissue Plasma): 0.002 mg/dL | GLC (24 h, tissue Plasma): 191.2 mg/dL | K (24 h, tissue Plasma): 4.5 meq/L | Na (24 h, tissue Plasma): 141.6 meq/L | RALB (24 h, tissue Plasma): 3.1 g/dL | TBIL (24 h, tissue Plasma): 0.014 mg/dL | TC (24 h, tissue Plasma): 77.6 mg/dL | TG (24 h, tissue Plasma): 113 mg/dL | TP (24 h, tissue Plasma): 5.5 g/dL | gamma-GTP (24 h, tissue Plasma): 1.4 IU/L
